Reference: paper PMC9466626, “Discovery of new 1H-pyrazolo[3,4-d]pyrimidine derivatives as anticancer agents targeting EGFR^WT and EGFR^T790M” (Journal of Enzyme Inhibition and Medicinal Chemistry, 2022)
Values joined by “and” are separate entries in the source; they are usually repeats but may differ in a detail not shown here. Identical values can stand only once. Like-named read-outs stand apart in the source and are kept apart here.

How the values were obtained:
HCT-116 = experiment: In vitro anti-proliferative MTT assay, HCT-116; assay type: cell-based, human
Procedure: The cytotoxic activities of the synthesised compounds were assessed against two human cancer cell lines (lung, A549) and (colon HCT-116) using an MTT assay. These two cell lines were selected in this test due to the overexpression of EGFR in human lung and colon cancer cell lines[48]^,[49]. The tested cells were reported to have a high expression level of EGFR.
In vitro cytotoxicity was carried out for the synthesised compounds against A549, HCT-116, and WI-38 cell lines using the MTT assay protocol[52–55] as described in Supplementary data. […]
1.1. In vitro antiproliferative activities
The in vitro antiproliferative activities of all the synthesized compounds against two human tumor cell lines namely, (lung, A549) and (colon HCT-116) and one normal cell line (WI-38) were evaluated quantitatively as described in the literature, using MTT assay protocol . two commercially available drugs (erlotinib) were used in this test as positive controls. The anti-proliferative activity was assessed quantitatively as follows.
Human cancer cell lines were dropped in 96 -well plates at a density of 3-8 × 10^3 cells/well.
Next, the wells were incubated for 12 h in a 5% CO 2 incubator at 37 °C. Then, for each well, the growth medium was exchanged with 0.1 ml of fresh medium containing graded concentrations of the test compounds to be or equal DMSO and incubated for two days. Then 10 μl MTT solution ([…]) was added to each well, and the cells were incubated for additional 4 h. The crystals of MTT-formazan were dissolved in 100 μl of DMSO; the absorbance of each well was measured at 490 nm using an automatic ELISA reader system (TECAN, CHE). The IC 50 values were calculated using the nonlinear regression fitting models (Graph Pad, Prism Version 5). The data represented the mean of three independent experiments in triplicate and were expressed as means ± SD. The IC50 value was defined as the concentration at which 50% of the cells could survive.
The results were expressed as growth inhibitory concentration (IC50) values and […]

EGFR^WT = molecular target: T1, EGFR^WT (Homo sapiens, UniProt P00533); experiment: EGFR^WT kinase inhibitory assay (HTRF); assay type: biochemical
T1 construct: purchased Sigma
T1 sequence (P00533 25-1210): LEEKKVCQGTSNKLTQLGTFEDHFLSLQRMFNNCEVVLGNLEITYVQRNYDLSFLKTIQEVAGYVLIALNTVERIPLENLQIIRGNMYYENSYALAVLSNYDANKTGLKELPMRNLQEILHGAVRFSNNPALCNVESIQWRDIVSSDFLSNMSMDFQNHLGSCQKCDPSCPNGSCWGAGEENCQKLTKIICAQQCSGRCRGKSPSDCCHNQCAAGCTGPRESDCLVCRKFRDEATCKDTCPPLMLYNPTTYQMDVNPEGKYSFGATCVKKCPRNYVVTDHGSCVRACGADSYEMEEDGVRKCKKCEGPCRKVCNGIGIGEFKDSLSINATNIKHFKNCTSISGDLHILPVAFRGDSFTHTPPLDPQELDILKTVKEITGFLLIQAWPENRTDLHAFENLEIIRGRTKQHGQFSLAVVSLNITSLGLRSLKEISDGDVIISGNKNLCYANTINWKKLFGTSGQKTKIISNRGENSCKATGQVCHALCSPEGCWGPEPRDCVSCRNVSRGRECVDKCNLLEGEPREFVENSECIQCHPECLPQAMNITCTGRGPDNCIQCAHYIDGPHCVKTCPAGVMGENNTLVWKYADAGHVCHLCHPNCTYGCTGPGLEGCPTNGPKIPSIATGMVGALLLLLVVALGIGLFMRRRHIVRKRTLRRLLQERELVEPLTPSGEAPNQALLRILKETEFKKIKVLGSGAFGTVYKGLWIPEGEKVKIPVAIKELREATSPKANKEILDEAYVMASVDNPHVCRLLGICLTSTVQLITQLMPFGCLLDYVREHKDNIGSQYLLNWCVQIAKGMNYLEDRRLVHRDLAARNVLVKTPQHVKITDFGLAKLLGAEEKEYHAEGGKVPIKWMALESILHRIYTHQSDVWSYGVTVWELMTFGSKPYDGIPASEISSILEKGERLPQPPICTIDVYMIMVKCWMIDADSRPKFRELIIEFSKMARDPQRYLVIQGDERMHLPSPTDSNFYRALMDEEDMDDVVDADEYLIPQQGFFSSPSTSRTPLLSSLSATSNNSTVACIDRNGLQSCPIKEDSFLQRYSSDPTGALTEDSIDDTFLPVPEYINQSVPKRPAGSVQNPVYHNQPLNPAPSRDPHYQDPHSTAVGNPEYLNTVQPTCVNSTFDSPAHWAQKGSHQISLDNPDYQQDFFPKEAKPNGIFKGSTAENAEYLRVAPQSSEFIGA
Procedure: (§1) In vitro EGFR inhibitory activity was assessed using a Homogeneous time-resolved fluorescence (HTRF) assay[56] as described in Supplementary data.
(§2) 4.1.1. EGFRWT and EGFRT790M kinase inhibitory assay […]
(§3) against four cancer cell lines were further examined for their inhibitory activities against both […]
(§4) Homogeneous time resolved fluorescence (HTRF) assay was applied in this test. EGFRWT, EGFRT790M (Sigma). firstly, the EGFRWT and/or EGFRT790M and their substrates were incubated with the tested compounds in enzymatic buffer for 5 min. […]
(§5) the enzymatic reaction. The assay was conducted for 30 min at room temperature. The reaction was stopped by addition of detection reagents which contain EDTA. The detection step continued […]
(§6) experiments were performed for each concentration. […]

EGFR^T790M = molecular target: T2, EGFR^T790M (Homo sapiens, UniProt P00533, T790M); experiment: EGFR^T790M kinase inhibitory assay (HTRF); assay type: biochemical
T2 construct: purchased Sigma
T2 sequence (P00533 25-1210 T790M): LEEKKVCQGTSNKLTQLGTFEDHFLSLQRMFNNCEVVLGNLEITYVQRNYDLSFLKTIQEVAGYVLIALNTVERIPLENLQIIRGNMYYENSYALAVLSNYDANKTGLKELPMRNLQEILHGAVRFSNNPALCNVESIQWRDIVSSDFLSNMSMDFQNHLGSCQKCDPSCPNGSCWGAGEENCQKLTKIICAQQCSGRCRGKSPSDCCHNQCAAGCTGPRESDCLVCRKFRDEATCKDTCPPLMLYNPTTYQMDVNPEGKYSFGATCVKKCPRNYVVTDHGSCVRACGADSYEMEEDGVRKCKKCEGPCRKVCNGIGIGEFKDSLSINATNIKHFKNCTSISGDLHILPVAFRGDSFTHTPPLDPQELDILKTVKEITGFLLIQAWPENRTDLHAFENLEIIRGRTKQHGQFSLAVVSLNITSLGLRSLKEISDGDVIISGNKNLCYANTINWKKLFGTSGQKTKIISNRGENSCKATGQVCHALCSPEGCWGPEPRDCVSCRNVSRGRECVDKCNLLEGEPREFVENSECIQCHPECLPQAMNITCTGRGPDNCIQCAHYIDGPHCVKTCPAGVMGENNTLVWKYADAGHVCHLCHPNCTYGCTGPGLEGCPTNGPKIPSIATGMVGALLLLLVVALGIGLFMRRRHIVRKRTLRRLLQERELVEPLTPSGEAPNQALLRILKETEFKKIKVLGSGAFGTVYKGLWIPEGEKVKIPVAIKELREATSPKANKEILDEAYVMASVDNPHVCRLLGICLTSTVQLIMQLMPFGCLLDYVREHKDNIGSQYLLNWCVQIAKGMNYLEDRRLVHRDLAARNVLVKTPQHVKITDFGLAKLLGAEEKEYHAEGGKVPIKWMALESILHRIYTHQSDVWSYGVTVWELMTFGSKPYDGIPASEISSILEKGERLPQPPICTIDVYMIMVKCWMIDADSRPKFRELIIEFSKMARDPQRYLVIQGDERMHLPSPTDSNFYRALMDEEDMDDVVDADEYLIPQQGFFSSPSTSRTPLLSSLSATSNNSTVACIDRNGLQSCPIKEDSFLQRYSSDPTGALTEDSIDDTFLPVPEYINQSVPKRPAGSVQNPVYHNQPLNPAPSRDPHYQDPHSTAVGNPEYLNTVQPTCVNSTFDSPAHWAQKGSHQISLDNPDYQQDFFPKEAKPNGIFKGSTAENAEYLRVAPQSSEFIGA
Procedure: as §1, §2, §3, §4, §5, §6

A549 cells [1] = experiment: Cell cycle analysis (flow cytometry, PI staining); assay type: cell-based, human
Procedure: The effect of compound 12b on cell cycle distribution was performed using the propidium iodide (PI) staining technique as described in Supplementary data[56–58]. […]
4.1.2. In-vitro DNA-Flow cytometric (cell cycle) analysis.
h. Then, the tested cells were collected by trypsinization and washed in PBS. Ice-cold absolute
ethanol was used for fixation of the collected cells. The cells were stained with Cycle TESTTM
PLUS DNA Reagent Kit (BD Biosciences, San Jose, CA) according to the manufacturer's
instructions. Cell-cycle distribution was evaluated using a flow cytometer. […]

A549 cells [2] = experiment: Annexin V-FITC apoptosis assay; assay type: cell-based, human
Procedure: The effect of compound 12b on cell apoptosis was investigated as described in Supplementary data[59]. […]
4.1.3. Annexin V-FITC apoptosis assay.
To detect the apoptosis induced by compound 12b, a549 cells were seeded and incubated overnight and then treated with compound 12b at concentrations of 8.21 µM µM for 48 h. DMSO was chosen as the negative control. After that, the cells were collected and washed with PBS two successive times. The cells were exposed to centrifugation. Apoptosis detection kit (BD Biosciences, San Jose, CA) was used in this test. According to the manufacturer's protocol the cells were stained by Annexin V-FITC and propidium iodide (PI) in the binding buffer for 20min at room temperature in the dark. Using a flow cytometer, Annexin V-FITC and PI binding were analyzed. flowjo software was used to analyze the frequencies in all quadrants.

BAX = experiment: qRT-PCR gene expression of BAX in A549 cells; assay type: cell-based, human; conditions: A549, 48 h, control set to 1
Procedure: (§7) The effect of compound 12b on the expression of BAX and Bcl‐2 was determined using qRT-PCR as described in Supplementary data[60–62].

Bcl-2 = experiment: qRT-PCR gene expression of Bcl-2 in A549 cells; assay type: cell-based, human; conditions: A549, 48 h
Procedure: as §7

BAX/Bcl-2 ratio = BAX/Bcl-2 ratio from qRT-PCR in A549 cells; assay type: cell-based, human; conditions: A549, 48 h, control set to 1
Procedure: as §7

in vitro = conditions: human, WI-38 normal cells
Procedure: (§8) Next, the wells were incubated for 12 h in a 5% CO 2 incubator at 37 °C. Then, for each well, the growth medium was exchanged with 0.1 ml of fresh medium containing graded concentrations of the test compounds to be or equal DMSO and incubated for two days. Then 10 μl MTT solution (5 μg/ml) was added to each well, and the cells were incubated for additional 4 h. The crystals of MTT-formazan were dissolved in 100 μl of DMSO; the absorbance of each well was measured at 490 nm using an automatic ELISA reader system (TECAN, CHE). The IC 50 values were calculated using the nonlinear regression fitting models (Graph Pad, Prism Version 5). The data represented the mean of three independent experiments in triplicate and were expressed as means ± SD.

WI-38 = experiment: In vitro cytotoxicity against normal cells (MTT), WI-38
Procedure: as §8

[3] = supplement graph, axis Log (nM)
[4] = A549, 8.21 µM, 48 h, mean ± SEM
[5] = A549, 8.21 µM, 48 h, mean ± SEM, listed as 12 b
[6] = A549, 48 h, mean ± SEM, listed as 12 b

SMILES: CC(=NNc1nc(Nc2ccccc2)nc2c1cnn2-c1ccccc1)c1ccc(Cl)cc1 [Compound 12b, 4–(2-(1–(4-Chlorophenyl)ethylidene)hydrazinyl)-N,1-diphenyl-1H-pyrazolo[3,4-d]pyrimidin-6-amine]
- IC50 (HCT-116; Homo sapiens, HCT-116, MTT, mean of three experiments, read-out: In vitro cytotoxicity IC50, HCT-116): 19600 nM
- HillSlope (best-fit value), HCT-116 (HCT-116; supplement IC50 graph): -0.3805
- LogIC50 (best-fit value), HCT-116 (HCT-116; supplement IC50 graph): 1.291
- IC50 (EGFR^WT; HTRF, mean of three experiments, read-out: EGFR^WT IC50): 16 nM
- HillSlope (best-fit value), EGFR inhibition (EGFR^WT; supplement graph): -0.3524
- LogIC50 (best-fit value), EGFR inhibition (EGFR^WT; [3]): 1.193
- IC50 (EGFR^WT; supplement graph, axis Log (nM), read-out: IC50 (best-fit value of graph), EGFR inhibition): 15.6 nM
- fold more potent than erlotinib against EGFR^T790M (EGFR^T790M): 2.4 fold
- IC50 (EGFR^T790M; HTRF, mean of three experiments, read-out: EGFR^T790M IC50): 236 nM
- HillSlope (best-fit value), EGFRT790M inhibition (EGFR^T790M; supplement graph): -0.3418
- LogIC50 (best-fit value), EGFRT790M inhibition (EGFR^T790M; [3]): 2.372
- IC50 (EGFR^T790M; supplement graph, axis Log (nM), read-out: IC50 (best-fit value of graph), EGFRT790M inhibition): 235 nM
- cell cycle arrest, phases (A549 cells [1]; A549): S and G2/M phases
- Cell cycle distribution % G2/M (A549 cells [1]; [4]): 28.55%
- Cell cycle distribution %G1 (A549 cells [1]; [4]): 28.04%
- Cell cycle distribution %S (A549 cells [1]; [4]): 42.39%
- Cell cycle distribution %Sub-G1 (A549 cells [1]; [4]): 0.89 ± 0.31%
- Cell cycle distribution % G2/M (A549 cells [1]; [5]): 28.55 ± 1.61 %
- Cell cycle distribution %G1 (A549 cells [1]; [5]): 28.04 ± 2.78 %
- Cell cycle distribution %S (A549 cells [1]; [5]): 42.39 ± 3.50 %
- fold decrease in percentage of cells in G1 phase (A549 cells [1]; vs untreated A549, 48 h): ~2 fold
- fold increase in % G2/M (A549 cells [1]; vs untreated A549, 48 h): 1.7 fold
- fold increase in percentage of cells in S phase (A549 cells [1]; vs untreated A549, 48 h): 1.5 fold
- Apoptosis Early (Right Bottom) (A549 cells [2]; A549, 48 h, mean ± SEM): 67.69%
- Apoptosis Late (Right Top) (A549 cells [2]; A549, 48 h, mean ± SEM): 0.64%
- Necrosis (Left Top) (A549 cells [2]; A549, 48 h, mean ± SEM): 0.10 ± 0.02%
- Viable (Left Bottom) (A549 cells [2]; A549, 48 h, mean ± SEM): 31.57 ± 4.64%
- Apoptosis Early (Right Bottom) (A549 cells [2]; [6]): 67.69 ± 4.86 %
- Apoptosis Late (Right Top) (A549 cells [2]; [6]): 0.64 ± 0.30%
- fold decrease in the ratio of viable cells (A549 cells [2]; vs untreated A549, 48 h): 3 fold
- fold increase in the early apoptosis ratio (A549 cells [2]; vs untreated A549, 48 h): 11 fold
- fold increase in the late apoptosis ratio (A549 cells [2]; vs untreated A549, 48 h): 1.5 fold
- Gene expression (Fold Change) BAX (BAX): 3.3 Fold Change and 3.33 ± 0.37 Fold Change
- Gene expression (Fold Change) Bcl-2 (Bcl-2; control set to 1): 0.40 ± 0.08 Fold Change
- fold decrease in Bcl-2 gene expression (Bcl-2; vs untreated): 2.5 fold
- Gene expression (Fold Change) BAX/Bcl-2 ratio (BAX/Bcl-2 ratio): 8.8 Fold Change and 8.80 ± 1.41 Fold Change
- IC50 at 2 days (in vitro): 39200 nM
- Selectivity index (SI) A549 (WI-38; cytotoxicity against WI-38 / cytotoxicity against A549): 4.77
- Selectivity index (SI) HCT-116 (WI-38; cytotoxicity against WI-38 / cytotoxicity against HCT-116): 2.00
- HillSlope (best-fit value), WI-38 (WI-38; supplement graph): -0.4504
- LogIC50 (best-fit value), WI-38 (WI-38; supplement graph): 1.593
